Data reported in US20240376151A1, “STAPLED PEPTIDES AND METHODS THEREOF” (FOG PHARMACEUTICALS, INC., priority 2022, published 2024).

What was measured:
Expi293 cells [1] = test: CellTiter-Glo cell health (ATP levels) during cell association assay; assay type: cell-based; settings: reflective of cell health, luminescence Tfinal (22 hours) / Tinitial
Expi293 cells [2] = test: Measurement of the Cell Association of Helicons (mass spectrometry quantification in cells after treatment and wash); assay type: cell-based; settings: percentage of Helicons in cells after treatment and wash, 22 hours, n = 2, mean ± SD
Experimental: All samples were analyzed using mass spectrometry.

Row | Molecule | CellTiter-Glo fold change ± SD (Expi293 cells [1]) | Helicon in cells ± SD (%) (Expi293 cells [2])
1 | CC(=O)N[C@@H](CC(C)C)C(=O)N[C@H](C(=O)N[C@@H](Cc1ccccc1)C(=O)N[C@]1(C)CCCCCCC=CCCC[C@@](C)(C(=O)N[C@@H](CO)C(=O)N[C@@H](C)C(=O)N[C@@H](C)C(N)=O)NC(=O)[C@H](CC2CCC2)NC(=O)[C@H](CCC(N)=O)NC(=O)[C@H](C)NC(=O)[C@H](Cc2c[nH]c3ccccc23)NC(=O)[C@H](Cc2ccc(O)cc2)NC(=O)[C@H](CCC(=O)O)NC1=O)[C@@H](C)O [FP01413, Ac-Leu-Thr-Phe-R8-Glu-Tyr-Trp-Ala-Gln-Cba-S5-Ser-Ala-Ala-NH2, reference compound] | 1.2 ± 0.07 | 3.7 ± 0.4
2 | CCCC[C@H](NC(=O)[C@@H](NC(C)=O)C(C)C)C(=O)N[C@@H](CCC(N)=O)C(=O)N[C@]1(C)CCCCCCC=CCCC[C@@](C)(C(=O)N[C@@H](Cc2c[nH]cn2)C(=O)N[C@@H](Cc2ccc(O)cc2)C(=O)N[C@H](C(N)=O)C(C)C)NC(=O)[C@H]([C@@H](C)CC)NC(=O)[C@H](Cc2ccccc2)NC(=O)[C@H](C)NC(=O)[C@H](C)NC(=O)[C@H](CCC(N)=O)NC(=O)[C@H](Cc2ccc(O)cc2)NC1=O (single isomer, unassigned) [FP07872, Ac-Val-nLeu-Gln-R8-Tyr-Gln-Ala-Ala-Phe-Ile-S5-His-Tyr-Val-NH2] | 1.1 ± 0.02 | 11.7 ± 1.6
3 | CC[C@H](C)[C@H](NC(=O)[C@H](Cc1ccc(O)cc1)NC(=O)[C@H](CCC(N)=O)NC(=O)[C@]1(C)CCCC=CCCCCCC[C@@](C)(NC(=O)[C@H](Cc2c[nH]cn2)NC(=O)[C@@H](NC(=O)[C@@H](NC(C)=O)[C@@H](C)CC)[C@@H](C)CC)C(=O)N[C@@H](Cc2ccc(O)cc2)C(=O)N[C@@H](CCC(=O)O)C(=O)N[C@@H](C)C(=O)N[C@@H](C)C(=O)N[C@@H](Cc2ccccc2)C(=O)N[C@@H](Cc2ccccc2)C(=O)N1)C(N)=O (single isomer, unassigned) [FP08011, Ac-Ile-Ile-His-R8-Tyr-Glu-Ala-Ala-Phe-Phe-S5-Gln-Tyr-Ile-NH2] | 1.2 ± 0.01 | 6.5 ± 0.5
4 | CCCC[C@H](NC(=O)[C@H](Cc1ccc(O)cc1)NC(=O)[C@H](CCC(N)=O)NC(=O)[C@]1(C)CCCC=CCCCCCC[C@@](C)(NC(=O)[C@H](CCC(=O)O)NC(=O)[C@H](CC(C)C)NC(=O)[C@@H](NC(C)=O)[C@@H](C)CC)C(=O)N[C@@H](Cc2ccc(O)cc2)C(=O)N[C@@H](CCC(=O)O)C(=O)N[C@@H](C)C(=O)N[C@@H](C)C(=O)N[C@@H](Cc2ccccc2)C(=O)N[C@@H](CCC(=O)O)C(=O)N1)C(N)=O (single isomer, unassigned) [FP08018, Ac-Ile-Leu-Glu-R8-Tyr-Glu-Ala-Ala-Phe-Glu-S5-Gln-Tyr-nLeu-NH2] | 1.1 ± 0.05 | 1.0 ± 0.1
5 | CCCC[C@H](NC(=O)[C@@H](NC(C)=O)C(C)C)C(=O)N[C@@H](CCC(=O)O)C(=O)N[C@]1(C)CCCCCCC=CCCC[C@@](C)(C(=O)N[C@@H](Cc2c[nH]cn2)C(=O)N[C@@H](Cc2ccc(O)cc2)C(=O)N[C@H](C(N)=O)C(C)C)NC(=O)[C@H]([C@@H](C)CC)NC(=O)[C@H](Cc2ccccc2)NC(=O)[C@H](C)NC(=O)[C@H](C)NC(=O)[C@H](CCC(N)=O)NC(=O)[C@H](Cc2ccc(O)cc2)NC1=O (single isomer, unassigned) [FP07868, Ac-Val-nLeu-Glu-R8-Tyr-Gln-Ala-Ala-Phe-Ile-S5-His-Tyr-Val-NH2] | 1.2 ± 0.10 | 10.3 ± 1.4
6 | CCCC[C@H](NC(=O)[C@@H](NC(C)=O)C(C)C)C(=O)N[C@@H](CCC(N)=O)C(=O)N[C@]1(C)CCCCCCC=CCCC[C@@](C)(C(=O)N[C@@H](Cc2c[nH]cn2)C(=O)N[C@@H](Cc2ccc(O)cc2)C(=O)N[C@H](C(N)=O)C(C)C)NC(=O)[C@H]([C@@H](C)CC)NC(=O)[C@H](Cc2ccccc2)NC(=O)[C@H](C)NC(=O)[C@H](C)NC(=O)[C@H](CCC(=O)O)NC(=O)[C@H](Cc2ccc(O)cc2)NC1=O (single isomer, unassigned) [FP07864, Ac-Val-nLeu-Gln-R8-Tyr-Glu-Ala-Ala-Phe-Ile-S5-His-Tyr-Val-NH2] | 1.1 ± 0.05 | 18.5 ± 11.4
7 | CCCC[C@H](NC(=O)[C@@H](NC(C)=O)C(C)C)C(=O)N[C@@H](CCC(=O)O)C(=O)N[C@]1(C)CCCCCCC=CCCC[C@@](C)(C(=O)N[C@@H](Cc2c[nH]cn2)C(=O)N[C@@H](Cc2ccc(O)cc2)C(=O)N[C@H](C(N)=O)C(C)C)NC(=O)[C@H]([C@@H](C)CC)NC(=O)[C@H](Cc2ccccc2)NC(=O)[C@H](C)NC(=O)[C@H](C)NC(=O)[C@H](CCC(N)=O)NC(=O)[C@H](Cc2ccc(O)cc2)NC1=O (single isomer, unassigned) [FP07867, Ac-Val-nLeu-Glu-R8-Tyr-Gln-Ala-Ala-Phe-Ile-S5-His-Tyr-Val-NH2] | 1.2 ± 0.03 | 8.6 ± 0.4
8 | CC[C@H](C)[C@H](NC(C)=O)C(=O)N[C@@H](CC(C)C)C(=O)N[C@@H](CCC(N)=O)C(=O)N[C@]1(C)CCCCCCC=CCCC[C@@](C)(C(=O)N[C@@H](Cc2c[nH]cn2)C(=O)N[C@@H](Cc2ccc(O)cc2)C(=O)N[C@@H](CCC(N)=O)C(N)=O)NC(=O)[C@H](CO)NC(=O)[C@H](Cc2ccccc2)NC(=O)[C@H](C)NC(=O)[C@H](C)NC(=O)[C@H](CCC(=O)O)NC(=O)[C@H](Cc2ccc(O)cc2)NC1=O (single isomer, unassigned) [FP07860, Ac-Ile-Leu-Gln-R8-Tyr-Glu-Ala-Ala-Phe-Ser-S5-His-Tyr-Gln-NH2] | 1.2 ± 0.03 | 0.3 ± 0.0
9 | Ac-[5FAM]-Lys-Gln-Ser-Gln-Gln-Thr-Phe-R8-Asn-Leu-Trp-Arg-Leu-Leu-S5-Gln-Asn-NH2 (KQSQQTFXNLWRLLXQN; Ac, 5FAM, R8-S5 staple, C-terminal amide; SITE 1 Acetylated 5-Carboxyfluorescein modified residue; SITE 8 (R)-2-amino-2-methyldec-9-enoic acid, useful for stapling/stapled with another amino acid residue comprising an olefin group to form a staple through the olefin group; SITE 15 (S)-2-amino-2-methylhept-6-enoic acid, useful for stapling/stapled with another amino acid residue comprising an olefin group to form a staple through the olefi) [FP47839, reference compound] | 1.3 ± 0.01 | 2.1 ± 0.1
10 | CCCC[C@H](NC(=O)[C@@H](NC(C)=O)C(C)C)C(=O)N[C@@H](CCC(N)=O)C(=O)N[C@]1(C)CCCCCCC=CCCC[C@@](C)(C(=O)N[C@@H](Cc2c[nH]cn2)C(=O)N[C@@H](Cc2ccc(O)cc2)C(=O)N[C@H](C(N)=O)C(C)C)NC(=O)[C@H]([C@@H](C)CC)NC(=O)[C@H](Cc2ccccc2)NC(=O)[C@H](C)NC(=O)[C@H](C)NC(=O)[C@H](CCC(N)=O)NC(=O)[C@H](Cc2ccc(O)cc2)NC1=O (single isomer, unassigned) [FP07871, Ac-Val-nLeu-Gln-R8-Tyr-Gln-Ala-Ala-Phe-Ile-S5-His-Tyr-Val-NH2] | 1.2 ± 0.03 | 7.0 ± 0.3
11 | CC[C@H](C)[C@H](NC(C)=O)C(=O)N[C@@H](CC(C)C)C(=O)N[C@@H](CCC(N)=O)C(=O)N[C@]1(C)CCCCCCC=CCCC[C@@](C)(C(=O)N[C@@H](Cc2c[nH]cn2)C(=O)N[C@@H](Cc2ccc(O)cc2)C(=O)N[C@@H](CCC(N)=O)C(N)=O)NC(=O)[C@H](CO)NC(=O)[C@H](Cc2ccccc2)NC(=O)[C@H](C)NC(=O)[C@H](C)NC(=O)[C@H](CCC(=O)O)NC(=O)[C@H](Cc2ccc(O)cc2)NC1=O (single isomer, unassigned) [FP07859, Ac-Ile-Leu-Gln-R8-Tyr-Glu-Ala-Ala-Phe-Ser-S5-His-Tyr-Gln-NH2] | 1.2 ± 0.02 | 0.1 ± 0.0
12 | CCCC[C@H](NC(=O)[C@@H](NC(C)=O)C(C)C)C(=O)N[C@@H](CCC(N)=O)C(=O)N[C@]1(C)CCCCCCC=CCCC[C@@](C)(C(=O)N[C@@H](Cc2c[nH]cn2)C(=O)N[C@@H](Cc2ccc(O)cc2)C(=O)N[C@H](C(N)=O)C(C)C)NC(=O)[C@H]([C@@H](C)CC)NC(=O)[C@H](Cc2ccccc2)NC(=O)[C@H](C)NC(=O)[C@H](C)NC(=O)[C@H](CCC(=O)O)NC(=O)[C@H](Cc2ccc(O)cc2)NC1=O (single isomer, unassigned) [FP07863, Ac-Val-nLeu-Gln-R8-Tyr-Glu-Ala-Ala-Phe-Ile-S5-His-Tyr-Val-NH2] | 1.2 ± 0.02 | 23.5 ± 6.5
13 | CCCC[C@H](NC(=O)[C@H](Cc1ccc(O)cc1)NC(=O)[C@H](CCC(N)=O)NC(=O)[C@]1(C)CCCC=CCCCCCC[C@@](C)(NC(=O)[C@H](CCC(=O)O)NC(=O)[C@H](CC(C)C)NC(=O)[C@@H](NC(C)=O)[C@@H](C)CC)C(=O)N[C@@H](Cc2ccc(O)cc2)C(=O)N[C@@H](CCC(=O)O)C(=O)N[C@@H](C)C(=O)N[C@@H](C)C(=O)N[C@@H](Cc2ccccc2)C(=O)N[C@@H](CCC(=O)O)C(=O)N1)C(N)=O (single isomer, unassigned) [FP08017, Ac-Ile-Leu-Glu-R8-Tyr-Glu-Ala-Ala-Phe-Glu-S5-Gln-Tyr-nLeu-NH2] | 1.2 ± 0.01 | 0.6 ± 0.1
14 | CCCC[C@H](NC(=O)[C@@H](NC(C)=O)C(C)C)C(=O)N[C@@H](CCC(=O)O)C(=O)N[C@]1(C)CCCCCCC=CCCC[C@@](C)(C(=O)N[C@@H](Cc2c[nH]cn2)C(=O)N[C@@H](Cc2ccc(O)cc2)C(=O)N[C@H](C(N)=O)C(C)C)NC(=O)[C@H]([C@@H](C)CC)NC(=O)[C@H](Cc2ccccc2)NC(=O)[C@H](C)NC(=O)[C@H](C)NC(=O)[C@H](CCC(=O)O)NC(=O)[C@H](Cc2ccc(O)cc2)NC1=O (single isomer, unassigned) [FP07855, Ac-Val-nLeu-Glu-R8-Tyr-Glu-Ala-Ala-Phe-Ile-S5-His-Tyr-Val-NH2] | 1.2 ± 0.10 | 16.4 ± 0.6
